Measurements taken from US20250369863A1, “METHOD FOR DETERMINING A STATUS OF A CO-CULTURE” (Universiteit Antwerpen, priority 2022, published 2025).

Test system: co-culture of patient-derived pancreatic tumor organoids (TCO) and cancer associated fibroblast (SCT)
Assay: co-culture of patient-derived pancreatic tumor organoids and cancer associated fibroblasts, stroma parameters from fluorescent images
Format: cell-based
Conditions: for stromal density of the micro-tumor: FIG. 10, static endpoint, compared to the control; for stromal density of the micro-tumor / stroma growth rate (normalized stromal growth rate) / contractility: Nintedanib 0.5 μM; for stromal density of the micro-tumor / stroma growth rate (normalized stromal growth rate): TGF-B 5 ng/ml; for stromal density of the micro-tumor / contractility: FGF2 10 ng/mL; for stroma growth rate (normalized stromal growth rate): FIG. 5, FGF2 10 ng/ml; for stroma size (area): FIG. 6; for stroma size (area) / stromal size ratio: dynamic (over time) kinetic quantification; for stromal size ratio: FIG. 9; for contractility: FIGS. 7 and 8
Description: A co-culture was prepared of patient-derived pancreatic tumor organoids (TCO) and cancer associated fibroblast (SCT), wherein the TCO and the SCT were fluorescently labelled with the first and second fluorescent label respectively. First and second fluorescent images were recorded and the status of the sample was determined with and without contacting the sample with Nintedanib, TGFB or FGF2. Nintedanib is a known anti-fibrotic drug that inhibits fibroblast proliferation and motility. TGFB and FGF2 are growth factors that can stimulate fibroblast proliferation.

Row | Compound | stromal density of the micro-tumor | micro-tumor formation driven by activated fibroblasts | stroma growth rate (normalized stromal growth rate) | stroma size (area) | stromal size ratio | stromal size ratio (listed as Nintedanib) | contractility | motility (shown by contractility, stromal size ratio and stromal density (FIGS. 7 to 10))
1 | TGFB | only had marginal effects |  |  |  |  |  |  | 
2 | COC(=O)c1ccc2c(c1)NC(=O)/C2=C(\Nc1ccc(N(C)C(=O)CN2CCN(C)CC2)cc1)c1ccccc1 [nintedanib, Nintedanib] | reduced | inhibited | inhibited | inhibited | reduced | inhibitory effect | lack of contractility | inhibited
3 | FGF2: growth factor that can stimulate fibroblast proliferation | only had marginal effects |  | stimulated the strongest | stimulated the strongest |  |  | have been contracted together | 
